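Step 1: Grow cells in 96-well plates. Step 2: Expose to compound for 48 hours at 5 concentrations. Step 3: Interpolate endpoints linearly; if unreached, use highest concentration. Here, GI50 denotes the concentration required for 50% inhibition of growth. TGI denotes the concentration required for complete inhibition of growth.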
What was measured:
Experiment in all cases: NCI anticancer screen, dose series, 48 h
TK-10 renal = system: TK-10 renal
HCT-15 colon = system: HCT-15 colon
T-47D breast = system: T-47D breast
HL-60(TB) leukemia = system: HL-60(TB) leukemia
MALME-3M melanoma = system: MALME-3M melanoma
DU-145 prostate = system: DU-145 prostate
SF-295 CNS = system: SF-295 CNS
SK-MEL-28 melanoma = system: SK-MEL-28 melanoma
HCT-116 colon = system: HCT-116 colon
SK-MEL-2 melanoma = system: SK-MEL-2 melanoma
SF-539 CNS = system: SF-539 CNS
NCI-H460 lung = system: NCI-H460 lung
OVCAR-3 ovarian = system: OVCAR-3 ovarian
HCC-2998 colon = system: HCC-2998 colon
SNB-19 CNS = system: SNB-19 CNS
SK-OV-3 ovarian = system: SK-OV-3 ovarian
A498 renal = system: A498 renal
MCF7 breast = system: MCF7 breast
SK-MEL-5 melanoma = system: SK-MEL-5 melanoma
BT-549 breast = system: BT-549 breast
OVCAR-5 ovarian = system: OVCAR-5 ovarian
OVCAR-4 ovarian = system: OVCAR-4 ovarian
NCI-H522 lung = system: NCI-H522 lung
PC-3 prostate = system: PC-3 prostate
MOLT-4 leukemia = system: MOLT-4 leukemia
EKVX NSCLC = system: EKVX NSCLC
HS 578T breast = system: HS 578T breast

## C#C[C@@]1(O)[C@@H](CO)O[C@@H](n2cc(Br)c3c(N)ncnc32)[C@@H]1O
TK-10 renal
  GI50: 445 nM
  TGI: > 92600 nM
HCT-15 colon
  GI50: 110 nM
  TGI: > 100000 nM
T-47D breast
  GI50: 17.3 nM
  TGI: 177 nM
HL-60(TB) leukemia
  GI50: 21.8 nM
  TGI: 75.7 nM
MALME-3M melanoma
  GI50: 708 nM
  TGI: 13100 nM
DU-145 prostate
  GI50: 97.4 nM
  TGI: > 100000 nM
SF-295 CNS
  GI50: 297 nM
  TGI: 7520 nM
SK-MEL-28 melanoma
  GI50: 3650 nM
  TGI: 38100 nM
HCT-116 colon
  GI50: 27.4 nM
  TGI: > 100000 nM
SK-MEL-2 melanoma
  GI50: 134 nM
  TGI: 571 nM
SF-539 CNS
  GI50: 298 nM
  TGI: 1530 nM
NCI-H460 lung
  GI50: 29.2 nM
  TGI: 901 nM
OVCAR-3 ovarian
  GI50: 215 nM
  TGI: 3770 nM
HCC-2998 colon
  GI50: 201 nM
  TGI: 809 nM
SNB-19 CNS
  GI50: 60.6 nM
SK-OV-3 ovarian
  GI50: 44.1 nM
  TGI: 439 nM
A498 renal
  GI50: 227 nM
  TGI: 587 nM
MCF7 breast
  GI50: 22.2 nM
  TGI: 1470 nM
SK-MEL-5 melanoma
  GI50: 107 nM
  TGI: 1940 nM
BT-549 breast
  GI50: 186 nM
  TGI: 663 nM
OVCAR-5 ovarian
  GI50: 593 nM
  TGI: > 75300 nM
OVCAR-4 ovarian
  GI50: 366 nM
  TGI: > 100000 nM
NCI-H522 lung
  GI50: 97.8 nM
  TGI: 444 nM
PC-3 prostate
  GI50: 89.3 nM
  TGI: > 29500 nM
MOLT-4 leukemia
  GI50: 112 nM
EKVX NSCLC
  GI50: 198 nM
  TGI: 2680 nM
HS 578T breast
  GI50: 644 nM
  TGI: > 72400 nM
